Experimental data: patent US20250312299A1, “COMPOSITION COMPRISING THIOUREA DERIVATIVE FOR PREVENTION OR TREATMENT OF FIBROTIC DISEASE” (THERASID BIOSCIENCE INC., priority 2022, published 2025)

Key:
Assay type in all cases: cell-based
[1] = system: A549 cells; assay: CCK-8 cell viability assay, lung cell line (A549); details: A549 lung carcinoma cells, 20 μM, 24 hours, CCK-8, FIG. 2
Procedure: (§1) A549 cells, which are lung cells (lung carcinoma cells), were seeded at 1.5×10^4 per well in a 96 well plate, cultured for 24 hours in a 37° C., 5% CO2 incubator, and then treated with the compound of the present invention (TB-840) at a concentration of 20 μM for 24 hours. After culturing for 24 hours, the cells were treated with 10 μl of CCK-8 solution for 2 hours.

[2] = system: fibronectin; assay: RT-qPCR gene expression of fibronectin in TGF-β treated LX2 cells; details: TGF-β 10 ng/ml + compound 20 μM, 24 hours, FIG. 5
Procedure: (§2) In order to confirm the inhibitory effect of the compound of the present invention on the gene expression of fibrosis-related markers, the gene expression of collagen type 1 (type 1 collagen; COL1A1) and fibronectin, which are fibrosis-related markers, was confirmed through RT-qPCR analysis. As a control group, TGF-β (transforming growth factor-β) was used. TGF-β is known to promote the production of extracellular matrix such as collagen and promote fibrosis of tissues.
(§3) LX2 cells were seeded at 3.5×10^5 per well in a 6 well plate, cultured for 24 hours in a 37° C., 5% CO2 incubator, and then treated with TGF-β at a concentration of 10 ng/ml and the compound of the present invention (TB-840) at a concentration of 20 μM, and cultured for 24 hours. After culturing for 24 hours, the cells were washed twice with phosphate buffered saline (PBS), and then RNA extraction was performed using a RNA-spin™ total RNA extraction kit (iNtRON Biotechnology, Cat no. 17211) protocol. Thereafter, the RNA concentration was measured using a Nanodrop device, and cDNA was synthesized using a Maxime™ RT PreMix (iNtRON Biotechnology, Cat no. 25081) and a MiniAmp™ Termal Cycler device. Thereafter, the gene expression levels of COL1A1 and fibronectin were measured using a QuantStudio 5 Real-Time PCR device.

[3] = system: fibronectin; assay: Western blot protein expression of fibronectin in TGF-β treated A549 cells; details: TGF-β 10 ng/ml + compound 20 μM, 24 hours, FIGS. 13 to 15
Source text: (§4) In order to confirm the inhibitory effect of the compound of the present invention on the protein expression of fibrosis-related markers, the protein expression of collagen type 1 (type 1 collagen; COL1A1) and fibronectin, which are fibrosis-related markers, and HSP60 was confirmed through Western blot analysis. As a control group, TGF-β (transforming growth factor-β) was used. TGF-β is known to promote the production of extracellular matrix such as collagen and promote fibrosis of tissues.
(§5) A549 cells were seeded at 2.5×10^5 per well in a 6 well plate, cultured for 24 hours in a 37° C., 5% CO2 incubator, and then treated with TGF-β at a concentration of 10 ng/ml and the compound of the present invention (TB-840) at a concentration of 20 μM, and cultured for 24 hours. After collecting the cultured cells, the cell pellet was spun down using a centrifuge (13,000 rpm, 5 min, 4° C.) and then lysed by adding lysis buffer with vortexing for 1 hour at 10-minute intervals, and then cell membrane components, etc. were removed using a centrifuge (13,000 rpm, 20 min, 4° C.). The sample was prepared by measuring according to the protocol using a BCA protein assay kit. […] Thereafter, the primary antibody was reacted overnight, and then the secondary antibody was bound, and the protein expression of COL1A1 and fibronectin was measured using an Azure biosystems (C300) device.

[4] = system: collagen type 1 (COL1A1); assay: RT-qPCR gene expression of COL1A1 in TGF-β treated LX2 cells; details: TGF-β 10 ng/ml + compound 20 μM, 24 hours, FIG. 4
Procedure: as §2, §3

[5] = system: collagen type 1 (COL1A1); assay: RT-qPCR gene expression of COL1A1 in TGF-β treated HK-2 cells; details: TGF-β 10 ng/ml + compound 20 μM, 24 hours, FIG. 8
Procedure: as §2
as §3, with “HK-2” for “LX2”, “2×10^5” for “3.5×10^5”

[6] = system: collagen type 1 (COL1A1); assay: Western blot protein expression of COL1A1 in TGF-β treated HK-2 cells; details: TGF-β 10 ng/ml + compound 20 μM, 48 hours, FIGS. 16 to 18
Source text: as §4
as §5, with “HK-2 cells were” for “A549 cells were”, “seeded at 1×10^6 per dish” for “seeded at 2.5×10^5 per well”, “1×10^6 per dish in a” for “2.5×10^5 per well in a”, “in a 60 φ dish, cultured for” for “in a 6 well plate, cultured for”, “cultured for 48 hours. After” for “cultured for 24 hours. After”

[7] = system: fibronectin; assay: RT-qPCR gene expression of fibronectin in TGF-β treated A549 cells; details: TGF-β 10 ng/ml + compound 20 μM, 24 hours, FIG. 7
Procedure: as §2
as §3, with “A549” for “LX2”, “2.5×10^5” for “3.5×10^5”

[8] = system: fibronectin; assay: RT-qPCR gene expression of fibronectin in TGF-β treated HK-2 cells; details: TGF-β 10 ng/ml + compound 20 μM, 24 hours, FIG. 9
Procedure: as §2
as §3, with “HK-2” for “LX2”, “2×10^5” for “3.5×10^5”

[9] = system: collagen type 1 (COL1A1); assay: Western blot protein expression of COL1A1 in TGF-β treated A549 cells; details: TGF-β 10 ng/ml + compound 20 μM, 24 hours, FIGS. 13 to 15
Source text: as §4, §5

[10] = system: fibronectin; assay: Western blot protein expression of fibronectin in TGF-β treated HK-2 cells; details: TGF-β 10 ng/ml + compound 20 μM, 48 hours, FIGS. 16 to 18
Source text: as §4
as §5, with “HK-2 cells were” for “A549 cells were”, “seeded at 1×10^6 per dish” for “seeded at 2.5×10^5 per well”, “1×10^6 per dish in a” for “2.5×10^5 per well in a”, “in a 60 φ dish, cultured for” for “in a 6 well plate, cultured for”, “cultured for 48 hours. After” for “cultured for 24 hours. After”

[11] = system: collagen type 1 (COL1A1); assay: RT-qPCR gene expression of COL1A1 in TGF-β treated A549 cells; details: TGF-β 10 ng/ml + compound 20 μM, 24 hours, FIG. 6
Procedure: as §2
as §3, with “A549” for “LX2”, “2.5×10^5” for “3.5×10^5”

[12] = system: HSP60; assay: Western blot protein expression of HSP60 in TGF-β treated HK-2 cells; details: TGF-β 10 ng/ml + compound 20 μM, 48 hours, FIGS. 16 to 18
Source text: as §4
as §5, with “HK-2 cells were” for “A549 cells were”, “seeded at 1×10^6 per dish” for “seeded at 2.5×10^5 per well”, “1×10^6 per dish in a” for “2.5×10^5 per well in a”, “in a 60 φ dish, cultured for” for “in a 6 well plate, cultured for”, “cultured for 48 hours. After” for “cultured for 24 hours. After”

[13] = system: HSP60; assay: Western blot protein expression of HSP60 in TGF-β treated LX2 cells; details: TGF-β 10 ng/ml + compound 20 μM, 48 hours, FIGS. 10 to 12
Source text: as §4
as §5, with “LX2 cells were” for “A549 cells were”, “seeded at 7.6×10^5 per dish” for “seeded at 2.5×10^5 per well”, “7.6×10^5 per dish in a” for “2.5×10^5 per well in a”, “in a 60 φ dish, cultured for” for “in a 6 well plate, cultured for”, “cultured for 48 hours. After” for “cultured for 24 hours. After”

[14] = system: LX2 cells; assay: CCK-8 cell viability assay, liver cell line (LX2); details: LX2 liver (stellate) cells, 20 μM, 24 hours, CCK-8, FIG. 1
Procedure: as §1, with “LX2” for “A549”, “liver” for “lung”, “(stellate” for “(lung carcinoma”, “1×10^4” for “1.5×10^4”

[15] = system: HSP60; assay: Western blot protein expression of HSP60 in TGF-β treated A549 cells; details: TGF-β 10 ng/ml + compound 20 μM, 24 hours, FIGS. 13 to 15
Source text: as §4, §5

[16] = system: fibronectin; assay: Western blot protein expression of fibronectin in TGF-β treated LX2 cells; details: TGF-β 10 ng/ml + compound 20 μM, 48 hours, FIGS. 10 to 12
Source text: as §4
as §5, with “LX2 cells were” for “A549 cells were”, “seeded at 7.6×10^5 per dish” for “seeded at 2.5×10^5 per well”, “7.6×10^5 per dish in a” for “2.5×10^5 per well in a”, “in a 60 φ dish, cultured for” for “in a 6 well plate, cultured for”, “cultured for 48 hours. After” for “cultured for 24 hours. After”

[17] = system: HK-2 cells; assay: CCK-8 cell viability assay, kidney cell line (HK-2); details: HK-2 kidney proximal tubular cells, 20 μM, 24 hours, CCK-8, FIG. 3
Procedure: as §1, with “HK-2” for “A549”, “kidney” for “lung”, “(proximal tubular” for “(lung carcinoma”, “1×10^4” for “1.5×10^4”

[18] = system: collagen type 1 (COL1A1); assay: Western blot protein expression of COL1A1 in TGF-β treated LX2 cells; details: TGF-β 10 ng/ml + compound 20 μM, 48 hours, FIGS. 10 to 12
Source text: as §4
as §5, with “LX2 cells were” for “A549 cells were”, “seeded at 7.6×10^5 per dish” for “seeded at 2.5×10^5 per well”, “7.6×10^5 per dish in a” for “2.5×10^5 per well in a”, “in a 60 φ dish, cultured for” for “in a 6 well plate, cultured for”, “cultured for 48 hours. After” for “cultured for 24 hours. After”

## CNC(=S)NCc1ccc(OCc2ccccc2)cc1 [TB-840, 1-(4-benzyloxy-benzyl)-3-methyl-thiourea]
[1]
  cell viability: ~100%
[2]
  gene expression of fibronectin compared to the group treated with TGF-β: reduced
[3]
  protein expression of fibronectin compared to the group treated with TGF-β: reduced
[4]
  gene expression of COL1A1 compared to the group treated with TGF-β: reduced
[5]
  gene expression of COL1A1 compared to the group treated with TGF-β: reduced
[6]
  protein expression of COL1A1 compared to the group treated with TGF-β: reduced
[7]
  gene expression of fibronectin compared to the group treated with TGF-β: reduced
[8]
  gene expression of fibronectin compared to the group treated with TGF-β: reduced
[9]
  protein expression of COL1A1 compared to the group treated with TGF-β: reduced
[10]
  protein expression of fibronectin compared to the group treated with TGF-β: reduced
[11]
  gene expression of COL1A1 compared to the group treated with TGF-β: reduced
[12]
  protein expression of HSP60: no change
[13]
  protein expression of HSP60: no change
[14]
  cell viability: ~100%
[15]
  protein expression of HSP60: no change
[16]
  protein expression of fibronectin compared to the group treated with TGF-β: reduced
[17]
  cell viability: ~100%
[18]
  protein expression of COL1A1 compared to the group treated with TGF-β: reduced
